From patent US12030896B2, “PIKfyve inhibitors” (Mayo Foundation for Medical Education and Research, priority 2018, dated 2024)
Read-outs that look alike come from different tables or passages of the source.

Test: Pharmacokinetic study of Example 1 in mouse (IV, IP, PO)
Type: in vivo, Male C57BL/6 Mouse
Conditions: male, C57BL/6, mouse, plasma; for AUC(0-inf): read-out: AUC0-inf; for Cmax: read-out: Cmax; for MRT inf: read-out: MRT0-inf; for MRT last: read-out: MRT0-last; for Tmax: read-out: Tmax; for concentration at 0.25 h: 0.250 h; for concentration at 0.5 h: 0.500 h; for C0: read-out: C0; for Vd: read-out: Vdss; for bioavailability: calculated using AUC0-inf or AUC0-last with nominal dose
Method: Species: Male C57BL/6 Mouse, fasted.
PK/PD testing of the compound was performed in mice, after IP, IV, or oral administration.

[1] = ip, 30 mg/kg, IP 30 mg/kg, mean
[2] = ip, 30 mg/kg, IP 30 mg/kg, individual mice M4-M6
[3] = iv, 5 mg/kg, IV 5 mg/kg, individual mice M1-M3
[4] = po, 30 mg/kg, PO 30 mg/kg, individual mice M7-M9
[5] = po, 30 mg/kg, PO 30 mg/kg, mean

Cc1ccc(Nc2nc(N/N=C/c3c[nH]c4ccccc34)nc(N3CCOCC3)n2)cc1 [Example 1, (E)-4-(2-((1H-indol-3-yl)methylene)hydrazinyl)-6-morpholino-N-(p-tolyl)-1,3,5-triazin-2-amine]
concentration at 4 h [1]: 175 ng/mL | concentration at 6 h [2]: 97.8 ng/mL | concentration at 6 h [1]: 105 ng/mL | concentration at 24 h [2]: 35 ng/mL | concentration at 24 h [1]: 36.6 ng/mL | AUC(0-t) [2]: 2520 ng·h/mL | AUC(0-inf) [2]: 3060 ng·h/mL | Cmax [2]: 443 ng/mL | MRT inf [2]: 13 h | MRT last [2]: 7.2 h | half-life (ip, 30 mg/kg, IP 30 mg/kg, individual mice M4-M6, read-out: T1/2 (converted)): 10.9 h | Tmax [2]: 1 h | AUC(0-t) [1]: 2850 ng·h/mL | AUC(0-inf) [1]: 3390 ng·h/mL | Cmax [1]: 534 ng/mL | MRT inf [1]: 12 h | MRT last [1]: 6.91 h | half-life (ip, 30 mg/kg, IP 30 mg/kg, mean, read-out: T1/2 (converted)): 10.1 h | Tmax [1]: 1.33 h | half-life (ip, 30 mg/kg, IP, single 30 mg/kg dose, read-out: half life (converted)): 10.1 h | concentration at 5 min [3]: 1300 ng/mL | concentration at 5 min (iv, 5 mg/kg, IV 5 mg/kg, mean): 1630 ng/mL | concentration at 0.25 h [3]: 1140 ng/mL | concentration at 0.25 h (iv, 5 mg/kg, IV 5 mg/kg, mean): 1310 ng/mL | concentration at 0.5 h [3]: 832 ng/mL | concentration at 0.5 h (iv, 5 mg/kg, IV 5 mg/kg, mean): 1010 ng/mL | concentration at 1 h [3]: 529 ng/mL | concentration at 1 h (iv, 5 mg/kg, IV 5 mg/kg, mean): 599 ng/mL | concentration at 2 h [3]: 176 ng/mL | concentration at 2 h (iv, 5 mg/kg, IV 5 mg/kg, mean): 183 ng/mL | concentration at 4 h [3]: 17.4 ng/mL | concentration at 4 h (iv, 5 mg/kg, IV 5 mg/kg, mean): 16.8 ng/mL | concentration at 6 h [3]: 5.13 ng/mL | concentration at 6 h (iv, 5 mg/kg, IV 5 mg/kg, mean): 4.2 ng/mL | AUC(0-t) [3]: 1370 ng·h/mL | clearance [3]: 60.5 mL/min/kg | AUC(0-inf) [3]: 1380 ng·h/mL | C0 [3]: 1390 ng/mL | MRT inf [3]: 0.959 h | MRT last [3]: 0.936 h | half-life (iv, 5 mg/kg, IV 5 mg/kg, individual mice M1-M3, read-out: T1/2 (converted)): 0.71 h | Vd [3]: 3.48 L/kg | AUC(0-t) (iv, 5 mg/kg, IV 5 mg/kg, mean): 1580 ng·h/mL | clearance (iv, 5 mg/kg, IV 5 mg/kg, mean): 53.4 mL/min/kg | AUC(0-inf) (iv, 5 mg/kg, IV 5 mg/kg, mean): 1580 ng·h/mL | C0 (iv, 5 mg/kg, IV 5 mg/kg, mean): 1820 ng/mL | MRT inf (iv, 5 mg/kg, IV 5 mg/kg, mean): 0.899 h | MRT last (iv, 5 mg/kg, IV 5 mg/kg, mean): 0.882 h | half-life (iv, 5 mg/kg, IV 5 mg/kg, mean, read-out: T1/2 (converted)): 0.667 h | Vd (iv, 5 mg/kg, IV 5 mg/kg, mean): 2.9 L/kg | concentration at 0.25 h [4]: 52.7 ng/mL | concentration at 0.25 h [5]: 59.1 ng/mL | concentration at 0.5 h [4]: 167 ng/mL | concentration at 0.5 h [5]: 122 ng/mL | concentration at 1 h [5]: 92 ng/mL | concentration at 2 h [5]: 30.5 ng/mL | concentration at 4 h [5]: 7.49 ng/mL | concentration at 6 h [4]: 11 ng/mL | concentration at 6 h [5]: 10 ng/mL | AUC(0-inf) [4]: 312 ng·h/mL | Cmax [4]: 167 ng/mL | MRT inf [4]: 2.1 h | MRT last [4]: 1.69 h | half-life (po, 30 mg/kg, PO 30 mg/kg, individual mice M7-M9, read-out: T1/2 (converted)): 1.31 h | Tmax [4]: 0.5 h | AUC(0-t) [5]: 188 ng·h/mL | AUC(0-inf) [5]: 211 ng·h/mL | Cmax [5]: 122 ng/mL | MRT inf [5]: 2.4 h | MRT last [5]: 1.61 h | half-life (po, 30 mg/kg, PO 30 mg/kg, mean, read-out: T1/2 (converted)): 1.54 h | Tmax [5]: 0.5 h | bioavailability (IP 30 mg/kg): 35.7% | bioavailability (PO 30 mg/kg): 2.22%
